From article PMC7211198, “Phase 1b study of a small molecule antagonist of human chemokine (C-C motif) receptor 2 (PF-04136309) in combination with nab-paclitaxel/gemcitabine in first-line treatment of metastatic pancreatic ductal adenocarcinoma” (Investigational New Drugs, 2019)

Assays:
[1] = tested on: CD14 + CCR2+ inflammatory monocytes; assay: CD14+CCR2+ inflammatory monocytes in peripheral blood and bone marrow by flow cytometry; format: in vivo, human
Protocol: (§1) The levels of CD14 + CCR2+ IM or other immune-cell phenotypes in the samples from the core needle biopsy, fine-needle aspirate from primary tumor tissue, bone marrow, and peripheral blood were assessed by flow cytometry. CCL2 levels were determined using whole blood plasma by immunoassay using a luminex-based method. The ex vivo inhibition of CCL2-induced pERK by PF-04136309 was measured in whole blood using flow cytometry. Percentages of CD4+, CD8+, and CD4 + FoxP3+ T cells within CD45+ populations were evaluated by flow cytometry in paired fresh biopsy samples from three patients. Two patients provided both baseline and on-study biopsies, and one patient provided a baseline biopsy only.

[2] = tested on: CCL2; assay: Plasma CCL2 levels by luminex-based immunoassay; format: in vivo, human; conditions: most patients, 500 mg (n = 17) and 750 mg (n = 4) BID, over the course of study
Protocol: as §1

[3] = tested on: CCL2-induced pERK; assay: Ex vivo CCL2-induced pERK in whole blood by flow cytometry (target engagement); design: species or system human; conditions: most patients, 500 mg (n = 17) and 750 mg (n = 4) BID, over the course of study
From the text: The primary objectives were to evaluate the safety and tolerability of PF-04136309 in combination with nab-paclitaxel/gemcitabine, to characterize the dose-limiting toxicities (DLTs), and determine the RP2D of PF-04136309. Secondary objectives included assessment of PF-04136309 PK analysis and ex vivo inhibition of CCL2-induced extracellular signal-regulated kinase phosphorylation (pERK) as a measure of target engagement. Exploratory objectives included evaluation of CCL2 levels in peripheral blood and the prevalence of IM, TAM, and other relevant immune cells in the peripheral blood, bone marrow, and core needle biopsy of metastases or fine-needle aspirate primary tumor tissue.
as §1

[4] = tested on: metastatic pancreatic ductal adenocarcinoma; assay: Antitumor response per RECIST version 1.1, mITT population; format: in vivo, human; conditions: 500 mg group; 2 of 17 with progression events, rest censored; not an appropriate estimate
[5] = design: method as in PMID 27055731; conditions: cited from earlier work

Structure (SMILES): O=C(NCC(=O)N1CC[C@H](N[C@H]2CC[C@@](O)(c3ccc(-c4ncccn4)cn3)CC2)C1)c1cccc(C(F)(F)F)c1 [PF-04136309]
- Accumulation of CCR2 + CD14+ monocytes in the bone marrow ([1]; 500 mg BID, week 6 post dosing vs baseline): not observed
- Change in absolute counts of CD14 + CCR2+ IM in peripheral blood ([1]; nearly all patients, baseline to study day 2, sustained through day 15): drop
- Change in plasma CCL2 levels [2]: increase
- Change in CCL2-induced pERK [3]: drop
- Median progression-free survival (mPFS) [4]: 5.3 months
- Proportion of patients achieving partial response vs that anticipated with FOLFIRINOX alone ([5]; phase Ib, in combination with FOLFIRINOX): significantly increased
- Pulmonary events reported ([5]; single agent, non-oncology studies (N = 178) and 39 advanced PDAC patients with FOLFIRINOX): no pulmonary events
- Safety and tolerability ([5]; single oral dose up to 1000 mg, repeated oral up to 500 mg BID as single agent or with FOLFIRINOX): generally safe and well tolerated
- Tolerability ([5]; with FOLFIRINOX, borderline resectable and locally advanced pancreatic cancer): well-tolerated
